# Measured values: US11298314B2, “Injectable composition for localized fat reduction without pain, edema, and side effects, and method for preparing same” (AMI PHARM CO., LTD., priority 2017, dated 2022)
# Entries after “also recorded” stand apart in the source; their conditions may differ. Where two headings read alike, the source gives them in different places.
# Key:
# [1] = test system: tissues of the injected area (rat paw); assay: H&E staining histological test (inflammation) of injected rat paw; assay type: in vivo, Sprague Dawley rats; details: for Inflammation reaction: GCA 0.0, H&E of injected rat paw; for degree of inflammation (H&E) in words: rats sacrificed at 3 hours, injected paw
# Experimental: The tissues of the injected area were dissected, fixed with 10% formalin, and then the specimen was prepared and images were captured using an optical microscope. The degree of inflammation was evaluated as follows.
# 3T3-L1 adipocytes [2] = assay: Lipolysis assay (glycerol release); assay type: cell-based; details: 48 hours; listed as PPC single
# Experimental: The glycerol activity assay was performed with the test materials to determine whether the cell death in the MTT assay was due to necrosis or lipolysis. Glycerol is a specific marker that increases when fat breaks down. Abcam Lipolysis Assay Kit (Colorimetric) was used according to the manufacturer's manual, and the method of the test was as follows: […] And then the lysis was induced. […] After adding the glycerol assay complex (50 μl) thereto, the solution was incubated at room temperature for 30 minutes. Absorbance was measured at OD 570 (using standard curve for absolute determination).
# paw of the rats = assay: Rat paw edema; assay type: in vivo, Sprague Dawley rats; details: for degree of edema, 1 hour after administration / degree of edema, 2 hours after administration / degree of edema, Immediately after administration: 0.1 ml into rat paw, swelling vs before injection; for degree of edema in words: 2 hours after administration, rat paw
# How it was run: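 Male Sprague Dawley rats (6 weeks old, 170–200 g) received 0.1 ml of PBS or test composition into the paw. Paw thickness measured by caliper before, immediately after, and 1 or 2 h post-injection; edema graded 0–4, with injection-site skin lesions photographed.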
# 3T3-L1 adipocytes [3] = assay: Adipocyte (3T3-L1) reducing effect, MTT assay; assay type: cell-based; details: for adipocyte-reducing activity compared with DCA 1.0% (Kybella): 96 hours
# Experimental: Tests were performed to compare the adipocyte reducing activity of the PPC single composition and the PPC composition solubilized with bile acids. Differentiated 3T3L-1 adipocyte lines were used to observe adipocyte reduction activity, and cell viability was monitored by MTT assay. […] Materials and methods employed in the following experiments are described below. In the following, % of the composition refers to % (w/v).
# The specific test methods are as follows. […] The cells were washed twice with PBS, treated with MTT reagent (50 μl) and left at 37° C. for 2 hours. After removing the supernatant, MTT formazan crystals were dissolved in DMSO and the absorbance was measured at 540 nm using a microplate reader.
# The 3T3-L1 adipocyte (ATCC) was cultured in Dulbecco's modified eagle medium (DMEM) (Invitrogen) supplemented with 10% fetal bovine serum, 100 units/ml penicillin and 100 μg/ml streptomycin under the condition of 5% CO2 and 37° C. […] Subsequently, the medium was replaced with DMEM medium containing 1 μg/ml insulin (Sigma), and the culture medium was maintained and changed every 2 to 3 days until the degree of differentiation reaches maximum. If it took more than 7 days, the cells were kept in normal DMEM culture medium until starting the tests. […] After the cells were incubated for 3 hours under the condition of 37° C. and 5% CO2, the MTT solution was removed.
# inguinal fat pad = details: 0.2 ml s.c. once into inguinal fat pad, 8 days post-injection
# sole of the rat paws = assay: Measurement of skin lesion (erythema) on rat paw; assay type: in vivo, Sprague Dawley rats;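 note: grades − to ++++ mean no to extremely severe erythema versus before injection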
# How it was run: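 Male Sprague Dawley rats (6 weeks, 170–200 g) received 0.1 ml test composition or PBS injected into the paw. Paw thickness measured by caliper before, immediately after, and 1 or 2 h post-injection; sole lesions photographed and graded 0–4.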
# [4] = test system: Caspase 3 in 3T3-L1 adipocytes; assay: Caspase 3 activity assay; assay type: cell-based; details: 0-48 hours; listed as PPC single composition
# Experimental: The Caspase 3 activity assay was performed with the test materials to determine whether the cell death in the result of MTT assay was due to necrosis or apoptosis. The Caspase 3 specifically increases when apoptosis occurs and is a marker of apoptosis. […] The cells were then treated with 50 ul of cell lysis buffer (10 mM Tris-HCl, 10 mM NaH2PO4/NaHPO4, pH 7.5, 130 mM NaCl, 1% Triton X-100 and 10 mM sodium pyrophosphate) and left at 4° C. for […]. The supernatant was collected by centrifugation at 1000× rpm for 1 minute, and protein quantification was performed by BCA method. The 50 μl of reaction buffer (4 mM HEPES, pH 7.5, 10% glycerol, 2 mM dithiothreitol) and 0.5 μl of 4 mM DEVD-p-NA were added to each sample and reacted at 37° C. for 1 hour. Then wavelength was measured with a […] at 405 nm.
# [5] = PPC single composition 2.50% (w/v)
# [6] = PPC single composition 5.00% (w/v)
# [7] = PPC single composition 7.50% (w/v)
# [8] = PPC single composition 10.0% (w/v)
# [9] = PPC single composition 12.5% (w/v)
# [10] = PPC single composition 15.0% (w/v)
# [11] = PPC single composition 1.25% (w/v)
substance,measurement,setting,value
"1,2-diacyl-sn-glycero-3-phosphocholine [PPC]",Inflammation reaction,[1]; [5],−
same,Inflammation reaction,[1]; [6],−
same,Inflammation reaction,[1]; [7],−
same,Inflammation reaction,[1]; [8],+
same,Inflammation reaction,[1]; [9],+
same,Inflammation reaction,[1]; [10],++
same,degree of inflammation (H&E) in words,[1]; listed as PPC 10.0%,Mild
same,degree of inflammation (H&E) in words,[1]; listed as PPC 12.5%,Mild
same,degree of inflammation (H&E) in words,[1]; listed as PPC 15.0%,moderate
same,glycerol release / cytolytic activity,3T3-L1 adipocytes [2],slightly higher cytolytic activity than at 24 hours; also recorded: slightly higher cytolytic activity than that of 24 hours
same,"degree of edema, 1 hour after administration",paw of the rats; listed as PPC 1.25%,"+ (mild edema [+, (the degree of swelling was 1-20% compared to before the injection)])"
same,"degree of edema, 2 hours after administration",paw of the rats; listed as PPC 1.25%,"+ (mild edema [+, (the degree of swelling was 1-20% compared to before the injection)])"
same,"degree of edema, Immediately after administration",paw of the rats; listed as PPC 1.25%,"+ (mild edema [+, (the degree of swelling was 1-20% compared to before the injection)])"
same,"degree of edema, 1 hour after administration",paw of the rats; listed as PPC 2.50%,"+ (mild edema [+, (the degree of swelling was 1-20% compared to before the injection)])"
same,"degree of edema, 2 hours after administration",paw of the rats; listed as PPC 2.50%,"+ (mild edema [+, (the degree of swelling was 1-20% compared to before the injection)])"
same,"degree of edema, Immediately after administration",paw of the rats; listed as PPC 2.50%,"+ (mild edema [+, (the degree of swelling was 1-20% compared to before the injection)])"
same,"degree of edema, 1 hour after administration",paw of the rats; listed as PPC 5.00%,"+ (mild edema [+, (the degree of swelling was 1-20% compared to before the injection)])"
same,"degree of edema, 2 hours after administration",paw of the rats; listed as PPC 5.00%,"+ (mild edema [+, (the degree of swelling was 1-20% compared to before the injection)])"
same,"degree of edema, Immediately after administration",paw of the rats; listed as PPC 5.00%,"+ (mild edema [+, (the degree of swelling was 1-20% compared to before the injection)])"
same,"degree of edema, 1 hour after administration",paw of the rats; listed as PPC 7.50%,"+ (mild edema [+, (the degree of swelling was 1-20% compared to before the injection)])"
same,"degree of edema, 2 hours after administration",paw of the rats; listed as PPC 7.50%,"+ (mild edema [+, (the degree of swelling was 1-20% compared to before the injection)])"
same,"degree of edema, Immediately after administration",paw of the rats; listed as PPC 7.50%,"++ (moderate edema [++, (the degree of swelling was 20-40% compared to before the injection)])"
same,"degree of edema, 1 hour after administration",paw of the rats; listed as PPC 10.0%,"+ (mild edema [+, (the degree of swelling was 1-20% compared to before the injection)])"
same,"degree of edema, 2 hours after administration",paw of the rats; listed as PPC 10.0%,"+ (mild edema [+, (the degree of swelling was 1-20% compared to before the injection)])"
same,"degree of edema, Immediately after administration",paw of the rats; listed as PPC 10.0%,"++ (moderate edema [++, (the degree of swelling was 20-40% compared to before the injection)])"
same,"degree of edema, 1 hour after administration",paw of the rats; listed as PPC 12.5%,"++ (moderate edema [++, (the degree of swelling was 20-40% compared to before the injection)])"
same,"degree of edema, 2 hours after administration",paw of the rats; listed as PPC 12.5%,"++ (moderate edema [++, (the degree of swelling was 20-40% compared to before the injection)])"
same,"degree of edema, Immediately after administration",paw of the rats; listed as PPC 12.5%,"++ (moderate edema [++, (the degree of swelling was 20-40% compared to before the injection)])"
same,"degree of edema, 1 hour after administration",paw of the rats; listed as PPC 15.0%,"++ (moderate edema [++, (the degree of swelling was 20-40% compared to before the injection)])"
same,"degree of edema, 2 hours after administration",paw of the rats; listed as PPC 15.0%,"++ (moderate edema [++, (the degree of swelling was 20-40% compared to before the injection)])"
same,"degree of edema, Immediately after administration",paw of the rats; listed as PPC 15.0%,"+++ (severe edema [+++, (the degree of swelling was 40-60% compared to before the injection)])"
same,degree of edema in words,paw of the rats; listed as PPC 12.5%,moderate
same,degree of edema in words,paw of the rats; listed as PPC 15.0%,moderate
same,adipocyte viability / adipocyte-reducing activity,"3T3-L1 adipocytes [3]; 24 to 96 hours, various concentrations, listed as PPC single composition",reduced adipocyte viability in time and concentration dependent manner
same,adipocyte-reducing activity compared with DCA 1.0% (Kybella),3T3-L1 adipocytes [3]; listed as PPC 5%,equivalent
same,adipocyte-reducing activity compared with DCA 1.0% (Kybella),3T3-L1 adipocytes [3]; listed as PPC 5.0%,similar; also recorded: equivalent
same,concentration of phosphatidylcholine with no lipolysis effect,3T3-L1 adipocytes [3]; FIGS. 7A to 7D,less than 0.625 % (w/v)
same,"inflammation at the site of administration, dermal and epidermal tissues",inguinal fat pad,no inflammatory cells such as neutrophils
same,histological change of adipocytes in fat tissue,inguinal fat pad; listed as PPC 5.0%,size of adipocytes was reduced
same,histological change of adipocytes in fat tissue,inguinal fat pad; listed as PPC 15.0%,development of macrophages was confirmed around adipocytes
same,histological change of adipocytes in fat tissue,inguinal fat pad; listed as PPC single composition,adipocyte apoptosis and degradation were induced in a concentration-dependent manner
same,"grade of skin lesion (erythema), 1 hour after administration",sole of the rat paws; [11],−
same,"grade of skin lesion (erythema), 2 hours after administration",sole of the rat paws; [11],−
same,"grade of skin lesion (erythema), Immediately after administration",sole of the rat paws; [11],−
same,"grade of skin lesion (erythema), 1 hour after administration",sole of the rat paws; [5],−
same,"grade of skin lesion (erythema), 2 hours after administration",sole of the rat paws; [5],−
same,"grade of skin lesion (erythema), Immediately after administration",sole of the rat paws; [5],−
same,"grade of skin lesion (erythema), 1 hour after administration",sole of the rat paws; [6],−
same,"grade of skin lesion (erythema), 2 hours after administration",sole of the rat paws; [6],−
same,"grade of skin lesion (erythema), Immediately after administration",sole of the rat paws; [6],−
same,"grade of skin lesion (erythema), 1 hour after administration",sole of the rat paws; [7],−
same,"grade of skin lesion (erythema), 2 hours after administration",sole of the rat paws; [7],−
same,"grade of skin lesion (erythema), Immediately after administration",sole of the rat paws; [7],−
same,"grade of skin lesion (erythema), 1 hour after administration",sole of the rat paws; [8],−
same,"grade of skin lesion (erythema), 2 hours after administration",sole of the rat paws; [8],−
same,"grade of skin lesion (erythema), Immediately after administration",sole of the rat paws; [8],−
same,"grade of skin lesion (erythema), 1 hour after administration",sole of the rat paws; [9],−
same,"grade of skin lesion (erythema), 2 hours after administration",sole of the rat paws; [9],−
same,"grade of skin lesion (erythema), Immediately after administration",sole of the rat paws; [9],−
same,"grade of skin lesion (erythema), 1 hour after administration",sole of the rat paws; [10],−
same,"grade of skin lesion (erythema), 2 hours after administration",sole of the rat paws; [10],−
same,"grade of skin lesion (erythema), Immediately after administration",sole of the rat paws; [10],−
same,caspase-3 activity,[4],time-dependent effect of inducing caspase-3 activity to a considerable level; also recorded: time-dependent effect of inducing caspase-3 activity to a considerable extent
